Activity calls are given as the source filed them.
Assays:
[1] = test system: Human adenovirus 2; experiment: In vitro antiviral activity against adeno virus type 2; Compound was inactive at 100 uM and 1000 uM respectively.; type: functional, organism-based
[2] = test system: CCRF-CEM; experiment: In vitro ability to inhibit the growth of CCRF-CEM human T-lymphoblastic leukemia; Compound was inactive at 100 uM and 1000 uM respectively.; type: functional, cell-based
[3] = test system: L1210; experiment: In vitro ability to inhibit the growth of L1210 murine lymphocytic leukemia; Compound was inactive at 100 uM and 1000 uM respectively.; type: functional, cell-based; settings: Mus musculus
[4] = test system: Semliki Forest virus; experiment: In vitro antiviral activity against semliki forest virus (original); Compound was inactive at 100 uM and 1000 uM respectively.; type: functional, organism-based
[5] = species: Homo sapiens; experiment: In vitro ability to inhibit the growth of WI-L2 human B-lymphoblastic leukemia; Compound was inactive at 100 uM and 1000 uM respectively.; type: functional
[6] = test system: Human rhinovirus 1A; experiment: In vitro antiviral activity against rhino virus type 1-A (2060); Compound was inactive at 100 uM and 1000 uM respectively.; type: functional, organism-based
[7] = test system: Human respirovirus 3; experiment: In vitro antiviral activity against parainfluenza virus type 3 (C243); Compound was inactive at 100 uM and 1000 uM respectively.; type: functional, organism-based
[8] = test system: Human alphaherpesvirus 2; experiment: In vitro antiviral activity against herpes simplex virus type 2 (MS); Compound was inactive at 100 uM and 1000 uM respectively.; type: functional, organism-based
[9] = test system: Influenza A virus; experiment: In vitro antiviral activity against influenza A virus (chile); Compound was inactive at 100 uM and 1000 uM respectively.; type: functional, organism-based
[10] = test system: Visna-maedi virus; experiment: In vitro antiviral activity against vinsa virus (1513); Compound was inactive at 100 uM and 1000 uM respectively.; type: functional, organism-based

Measured: Activity

Nc1ccnn2c([C@@H]3O[C@H](CO)[C@@H](O)[C@H]3O)nnc12
inactive: [1] inactive at 100 uM and 1000 uM respectively | [2] inactive at 100 uM and 1000 uM respectively | [3] inactive at 100 uM and 1000 uM respectively | [4] inactive at 100 uM and 1000 uM respectively | [5] inactive at 100 uM and 1000 uM respectively | [6] inactive at 100 uM and 1000 uM respectively | [7] inactive at 100 uM and 1000 uM respectively | [8] inactive at 100 uM and 1000 uM respectively | [9] inactive at 100 uM and 1000 uM respectively | [10] inactive at 100 uM and 1000 uM respectively

COc1ccc2nnc([C@@H]3O[C@H](CO)[C@@H](O)[C@H]3O)n2n1
inactive: [1] inactive at 100 uM and 1000 uM respectively | [2] inactive at 100 uM and 1000 uM respectively | [3] inactive at 100 uM and 1000 uM respectively | [4] inactive at 100 uM and 1000 uM respectively | [5] inactive at 100 uM and 1000 uM respectively | [6] inactive at 100 uM and 1000 uM respectively | [7] inactive at 100 uM and 1000 uM respectively | [8] inactive at 100 uM and 1000 uM respectively | [9] inactive at 100 uM and 1000 uM respectively | [10] inactive at 100 uM and 1000 uM respectively

Nc1c(Cl)cnn2c([C@@H]3O[C@H](CO)[C@@H](O)[C@H]3O)nnc12
inactive: [1] inactive at 100 uM and 1000 uM respectively | [2] inactive at 100 uM and 1000 uM respectively | [3] inactive at 100 uM and 1000 uM respectively | [4] inactive at 100 uM and 1000 uM respectively | [5] inactive at 100 uM and 1000 uM respectively | [6] inactive at 100 uM and 1000 uM respectively | [7] inactive at 100 uM and 1000 uM respectively | [8] inactive at 100 uM and 1000 uM respectively | [9] inactive at 100 uM and 1000 uM respectively | [10] inactive at 100 uM and 1000 uM respectively

Nc1cnn2c([C@@H]3O[C@H](CO)[C@@H](O)[C@H]3O)nnc2c1Cl
inactive: [1] inactive at 100 uM and 1000 uM respectively | [2] inactive at 100 uM and 1000 uM respectively | [3] inactive at 100 uM and 1000 uM respectively | [4] inactive at 100 uM and 1000 uM respectively | [5] inactive at 100 uM and 1000 uM respectively | [6] inactive at 100 uM and 1000 uM respectively | [7] inactive at 100 uM and 1000 uM respectively | [8] inactive at 100 uM and 1000 uM respectively | [9] inactive at 100 uM and 1000 uM respectively | [10] inactive at 100 uM and 1000 uM respectively

Nc1ccc2nnc([C@@H]3O[C@H](CO)[C@@H](O)[C@H]3O)n2n1
inactive: [1] inactive at 100 uM and 1000 uM respectively | [2] inactive at 100 uM and 1000 uM respectively | [3] inactive at 100 uM and 1000 uM respectively | [4] inactive at 100 uM and 1000 uM respectively | [5] inactive at 100 uM and 1000 uM respectively | [6] inactive at 100 uM and 1000 uM respectively | [7] inactive at 100 uM and 1000 uM respectively | [8] inactive at 100 uM and 1000 uM respectively | [9] inactive at 100 uM and 1000 uM respectively | [10] inactive at 100 uM and 1000 uM respectively

O=c1ccc2nnc([C@@H]3O[C@H](CO)[C@@H](O)[C@H]3O)n2[nH]1
inactive: [1] inactive at 100 uM and 1000 uM respectively | [2] inactive at 100 uM and 1000 uM respectively | [3] inactive at 100 uM and 1000 uM respectively | [4] inactive at 100 uM and 1000 uM respectively | [5] inactive at 100 uM and 1000 uM respectively | [6] inactive at 100 uM and 1000 uM respectively | [7] inactive at 100 uM and 1000 uM respectively | [8] inactive at 100 uM and 1000 uM respectively | [9] inactive at 100 uM and 1000 uM respectively | [10] inactive at 100 uM and 1000 uM respectively

Nc1cnn2c([C@@H]3O[C@H](CO)[C@@H](O)[C@H]3O)nnc2c1
inactive: [1] inactive at 100 uM and 1000 uM respectively | [2] inactive at 100 uM and 1000 uM respectively | [3] inactive at 100 uM and 1000 uM respectively | [4] inactive at 100 uM and 1000 uM respectively | [5] inactive at 100 uM and 1000 uM respectively | [6] inactive at 100 uM and 1000 uM respectively | [7] inactive at 100 uM and 1000 uM respectively | [8] inactive at 100 uM and 1000 uM respectively | [9] inactive at 100 uM and 1000 uM respectively | [10] inactive at 100 uM and 1000 uM respectively
